Assay results: patent US10322143B2, “Inhibitors of ADAMTS4 or ADAMTS5 for use in preventing or treating cardiac remodeling and chronic heart failure” (Universitetet i Oslo, priority 2013, dated 2019)
Marks after values point to notes of the source that are not given here.

Legend:
[1] = tested on: myocardial infarction rats; assay: Myocardial infarction rat model: echocardiography, MRI and organ weights after PPS-treatment; format: in vivo; conditions: for EDV (end-diastolic volume, MRI) / Heart weight / LAD (left atrial diameter) / LVDd (left ventricular diameter at diastole) / Lung weight / Max. syst velocity (maximum systolic velocity) / RV weight / VTI (velocity time integral): median (interquartile range)
Description: Male Wistar rats weighing 160-170 grams (approximately 7 weeks old) (Taconic, Skensved Denmark) underwent MI (myocardial infarction) by left coronary artery ligation as described previously (Sjaastad I, et al. J Appl Physiol 2000 October; 89(4):1445-54). In all surgical procedures performed, a mixture of 67% N2O, 28% O2, and 4% isoflurane in an anesthesia chamber was used for preoperative sedation. To maintain anesthesia preoperatively, a mixture of 69% N2O, 29% O2, and 2% isoflurane was given by the endotracheal tube and the animals were ventilated on a respirator (Zoovent, Triumph Technical Services, Milton Keynes, UK). Buprenorphine (0.2 mg/kg) was given as postoperative analgesia after MI. Rats were housed in cages (one or two rats in each cage) with Bee Kay bedding (Scanbur B K, Nittedal, Norway) in 55% humidity on a 12 h light/dark cycle, with food pellets (RM1, 801151, Scanbur B K) and water ad libitum.
(§1) At day 0 to 3 (median 2) after surgery, infarct size was quantified by echocardiography using the Vevo2100 system (Visualsonics Inc, Canada) and magnetic resonance imaging (MRi) using a 9.4 T/210 mm/ASR horizontal bore magnet (Agilent Technologies, Inc., USA). Initially, echocardiography was performed to select moderate to large infarcts ranging approximately 40 to 50%. Thereafter, infarct sizes were exactly measured by late-enhancement gadolinium MRi analyses (Bohl S., et al. American Journal of Physiology, 2009; 296 (4): H1200-H1208) and stratified into small infarcts (stratum 1: <43%, stratum 2: 43-48%), and large infarcts (stratum 3: 48-53%, stratum 4: >53%). The rats in each MI stratum and sham group were randomized to receive intervention or control treatment. The intervention group was treated with 6 mg/kg of sodium PPS (Interfarm AS, Norway), while the control group received vehicle (0.9% NaCl), both injected subcutaneously every third day starting from post-operative day 8-10.
After receiving PPS- or vehicle-treatment for 51 to 56 days (median 55 days), rats were sacrificed after examination by experienced investigators blinded to treatment group. In vivo heart function was evaluated as previously described with echocardiography (Sjaastad I, et al., J Appl Physiol 2000 October; 89(4):1445-54) and MRi (Espe E., Journal of Cardiovascular Magnetic Resonance 2013; 15(1):82). Thereafter, the heart and lung was excised under deep anesthesia, washed in saline and blotted dry to remove blood in the cardiac chambers. The heart chambers were separated by rapid dissection, before left ventricles were divided into infarcted and viable tissue. Lungs and cardiac tissue were snap-frozen in liquid nitrogen and stored at −70° C. until RNA and protein analyses.

ADAMTS4 = ADAMTS4 (Rattus norvegicus (Rat), UniProt Q9ESP7); assay: Active ADAMTS4 protein level (immunoblotting) in MI rats; format: in vivo; conditions: PPS-treatment
Description: as §1
Fractional protein lysates from myocardium of rats having undergone MI treated with PPS or vehicle were extracted as previously described in Example 1 and Didangelos et al. (Journal of Biological Chemistry 2012 Jun. 1; 287(23):19341-5). Protein concentrations were measured by western blotting as previously described in Example 1. […]

[2] = tested on: acute ischemia/reperfusion model; conditions: administered during reperfusion; cited from earlier work
[3] = MI strata 1 + 2 (small infarcts) PPS, 6 mg/kg s.c. every third day from day 8-10
[4] = MI strata 3 + 4 (large infarcts) PPS, 6 mg/kg s.c. every third day from day 8-10
[5] = Sham PPS, 6 mg/kg s.c. every third day
[6] = rats with large infarcts, PPS vs vehicle

pentosan polysulfate [PPS]
side effects including hemorrhage ([1]; MI rats, 6 mg/kg s.c. every third day, observed daily): no side effects
EDV (end-diastolic volume, MRI) [1, 3]: 614 (524-707)
Heart weight [1, 3]: 1610 (1450-1760) mg
LAD (left atrial diameter) [1, 3]: 5.32 (4.25-6.50) mm
LVDd (left ventricular diameter at diastole) [1, 3]: 9.91 (9.50-10.29) mm
Lung weight [1, 3]: 1930 (1450-3420) mg
Max. syst velocity (maximum systolic velocity) [1, 3]: 39.7 (28.3-57.5)
RV weight [1, 3]: 300 (180-345) mg
VTI (velocity time integral) [1, 3]: 57.9 (50.8-69.6) mm
EDV (end-diastolic volume, MRI) [1, 4]: 644 (552-709)
Heart weight [1, 4]: 1595 (1475-1710) mg
LAD (left atrial diameter) [1, 4]: 6.88 (5.51-7.31) mm
LVDd (left ventricular diameter at diastole) [1, 4]: 10.25 (9.51-10.75) mm
Lung weight [1, 4]: 2770 (1990-3385) mg
Max. syst velocity (maximum systolic velocity) [1, 4]: 41.7 (31.2-52.0)*
RV weight [1, 4]: 395 (355-523) mg
VTI (velocity time integral) [1, 4]: 69.8 (51.1-75.9)* mm
EDV (end-diastolic volume, MRI) [1, 5]: 293 (256-346)
Heart weight [1, 5]: 1005 (980-1248) mg
LAD (left atrial diameter) [1, 5]: 3.67 (3.45-3.73) mm
LVDd (left ventricular diameter at diastole) [1, 5]: 6.91 (6.60-7.88) mm
Lung weight [1, 5]: 1255 (1158-1280) mg
Max. syst velocity (maximum systolic velocity) [1, 5]: 64.0 (46.6-67.2)
RV weight [1, 5]: 168 (160-208) mg
VTI (velocity time integral) [1, 5]: 58.5 (53.9-65.5) mm
reduction in heart weight ([1]; rats with large infarcts, PPS vs corresponding vehicle-treated rats): ~25%
maximum systolic velocity after PPS-treatment [1, 6]: improved
reduction in left atrial diameter [1, 6]: 10%
reduction in lung weight [1, 6]: 1/3
velocity time integral after PPS-treatment [1, 6]: improved
active ADAMTS4 protein levels (ADAMTS4): decreased
infarction size [2]: reduce infarction size
